Patent US11787790B2, “Benzimidazole derivative having fluorine-containing substituent, preparation and application thereof” (YUNBAIYAO ZHENGWU SCIENCE AND TECHNOLOGY (SHANGHAI) CO., …, priority 2020, dated 2023)

Key:
[1] = in vivo; cited from earlier work
[2] = oral administrated; cited from earlier work
[3] = test system: MCF-7 (human breast cancer cells); assay: CCK-8 anti-proliferation assay, MCF-7 cells; type: cell-based; settings: MCF7, CCK-8, 72 hours incubation, read-out: MCF-7 cell IC50
Protocol: (§1) The anti-proliferation activities of compounds 1-11 to U87MG cells (human malignant glioma cells, ATCC 5018014), NCI-H1975 cells (human non-small cell lung adenocarcinoma cells, ATCC 57849016), A549 cells (human non-small cell lung cancer cells, ATCC 7503618), HCT 116 (human colon cancer cells, ATCC 4587576), and MCF-7 (human breast cancer cells, ATCC 5105360) were verified by using a CCK-8 method.
(§2) A sample stock solution with a concentration of 20 μM was prepared first. The stock solution was sequentially diluted to obtain 10 samples with concentrations of 20000 nM, 4000 nM, 800 nM, 160 nM, 32 nM, 6.4 nM, 1.28 nM, 0.256 nM, 0.0512 nM, and 0.01024 nM, respectively.
(§3) 50 μL of cell suspension with density of 2*10^4 cells/mL was prepared in 96-well plates followed by pre-culturing in the incubator for 24 hours (37° C., 5% CO2). 50 μL of afore-mentioned sample solution was added into each well. After incubated for 72 hours, 10 μl of CCK-8 solution was added into each well, and then further incubated for additional 2 hours.

[4] = Determination of half-lethal dose (LD50) in mice; settings: both sexes, mouse, in vivo, Kunming mice, gastric administration, Bliss calculation method
Protocol: The SPF-grade Kunming mice, belonging to the outbred stock and weighing 20±2 g, were selected (a ratio of the males to the females was 1:1). The dosage range of each compound was explored through pre-experiments. After that, formal tests were carried out. In the range of 0-100% of the lethal dose obtained by the pre-experiments, five doses were selected to increase or decrease according to the isobaric series to allow the mortality of one half of the groups to be 50% or above, and the other half to be 50% or less. After animal grouping and dosage calculation were completed, gastric administration was performed according to the group. The time from the administration to the beginning of the occurrence of toxic reaction, the poisoning phenomenon and the occurrence sequence thereof, the time of the first occurrence of death, the time of death concentration, and the time of the last occurrence of death were recorded. The number of deaths in each group was recorded day by day.

[5] = test system: HCT 116 (human colon cancer cells); assay: CCK-8 anti-proliferation assay, HCT 116 cells; type: cell-based; settings: CCK-8, 72 hours incubation, read-out: HCT116 cell IC50
Protocol: as §1, §2, §3

[6] = test system: NCI-H1975 cells (human non-small cell lung adenocarcinoma cells); assay: CCK-8 anti-proliferation assay, NCI-H1975 cells; type: cell-based; settings: CCK-8, 72 hours incubation
Protocol: as §1, §2, §3

[7] = test system: A549 cells (human non-small cell lung cancer cells); assay: CCK-8 anti-proliferation assay, A549 cells; type: cell-based; settings: CCK-8, 72 hours incubation
Protocol: as §1, §2, §3

[8] = test system: U87MG cells (human malignant glioma cells); assay: CCK-8 anti-proliferation assay, U87MG cells; type: cell-based; settings: U-87 MG, CCK-8, 72 hours incubation, read-out: U87MG cell IC50
Protocol: as §1, §2, §3

| Compound | crossing the blood-brain barrier [1] | bioavailability [2] | IC50 [3] | LD50 ([4]; oral) | IC50 [5] | IC50 [6] | IC50 [7] | IC50 [8] | LD50 [4] |
| --- | --- | --- | --- | --- | --- | --- | --- | --- | --- |
| Cn1nnc2c(C(N)=O)ncn2c1=O [Temozolomide] | can cross the blood-brain barrier | ~100% | – | – | – | – | – | – | – |
| N#CCCNc1nonc1-c1nc2cc(C(F)(F)F)ccc2n1CC(F)(F)c1ccc(N)cc1 [Compound 6] | – | – | 0.0132 µM | 254 mg/kg | 0.0172 µM | 0.0119 µM | 0.0147 µM | 0.0342 µM | – |
| N#CCCNc1nonc1-c1nc2ccccc2n1CC(=O)c1ccc(N)cc1 [Compound 11, 3-{[4-(1-(4-aminoacetophenone)-benzimidazol-2-yl)-1,2,5-oxadiazol-3-yl]amino}propionitrile, reference compound] | capable of crossing the blood-brain barrier | – | 0.0392 µM | – | 0.0526 µM | 0.0428 µM | 0.0424 µM | 0.0512 µM | 153 mg/kg |
| N#CCCNc1nonc1-c1nc2c(Cl)cccc2n1CC(F)(F)c1ccc(N)cc1 [Compound 4] | – | – | 0.0217 µM | 262 mg/kg | 0.0121 µM | 0.0149 µM | 0.0129 µM | 0.0273 µM | – |
| N#CCCNc1nonc1-c1nc2ccccc2n1CCC(F)(F)c1ccc(N)cc1 [Compound 10] | – | – | 0.0385 µM | 323 mg/kg | 0.0387 µM | 0.0343 µM | 0.0415 µM | 0.0412 µM | – |
| N#CCCNc1nonc1-c1nc2ccccc2n1CC(F)c1ccc(N)cc1 (stereo not drawn) [Compound 8, 3-[(4-{1-[2-(4-aminophenyl)-2-fluoroethyl]-1H-benzimidazol-2-yl}-1,2,5-oxadiazol-3-yl)amino] propionitrile] | – | – | 0.0228 µM | 291 mg/kg | 0.0244 µM | 0.0175 µM | 0.0337 µM | 0.0156 µM | – |
| N#CCCNc1nonc1-c1nc2c(O)cccc2n1CC(F)(F)c1ccc(N)cc1 [Compound 2] | – | – | 0.0174 µM | 245 mg/kg | 0.0283 µM | 0.0312 µM | 0.0182 µM | 0.0224 µM | – |
| N#CCCNc1nonc1-c1nc2ccccc2n1CC(F)(F)c1ccc(N)cc1 [Compound 1, 3-[(4-{1-[2-(4-aminophenyl)-2,2-difluoroethyl]-1H-benzimidazol-2-yl}-1,2,5-oxadiazol-3-yl)amino] propionitrile] | – | – | 0.033 µM | 267 mg/kg | 0.0197 µM | 0.0194 µM | 0.029 µM | 0.0313 µM | – |
| N#CCCNc1nonc1-c1nc2cc(O)ccc2n1CC(F)(F)c1ccc(N)cc1 [Compound 3] | – | – | 0.0132 µM | 239 mg/kg | 0.0136 µM | 0.0133 µM | 0.0268 µM | 0.0132 µM | – |
| N#CCCNc1nonc1-c1nc2ccccc2n1C(F)(F)c1ccc(N)cc1 [Compound 9] | – | – | 0.0328 µM | 305 mg/kg | 0.0285 µM | 0.0198 µM | 0.0287 µM | 0.0239 µM | – |
| Cc1ccc2c(c1)nc(-c1nonc1NCCC#N)n2CC(F)(F)c1ccc(N)cc1 [Compound 7] | – | – | 0.0257 µM | 239 mg/kg | 0.0137 µM | 0.0324 µM | 0.0139 µM | 0.0125 µM | – |
| N#CCCNc1nonc1-c1nc2cc(Cl)ccc2n1CC(F)(F)c1ccc(N)cc1 [Compound 5] | – | – | 0.0169 µM | 264 mg/kg | 0.0358 µM | 0.0274 µM | 0.0132 µM | 0.0157 µM | – |
